Data published in patent US6761896B1, “Skin cosmetic care system and method” (Unilever Home & Personal Care USA, division of Conopco, Inc., priority 1998, dated 2004).
Where “and” joins values, the source holds several entries; their conditions need not be identical. Identical values can stand only once.

How the values were obtained:
Assay type in all cases: cell-based
MelanoDerm MEL-300 = assay: Pigmentation in MelanoDerm Living Skin Equivalent (blue colour image analysis); details: for effect of South pole magnetism on skin depigmenting action: Kojic acid 500, Yohimbine 25, Ascorbic acid 285 micro-molar, magnet vs no magnet, p<0.05; for Pigmentation Reduction Magnet % South Pole (B): day 14, South Pole magnet; for Pigmentation Reduction Magnet % South Pole (B) / Pigmentation Reduction % No Magnet (A): individual tissues; for Pigmentation Reduction % No Magnet (A): day 14, no magnet, relative to untreated control
Experimental: Kojic acid, Vitamin C, and Yohimbine were examined for their ability to reduce pigmentation in the MelanoDerm Living Skin Equivalent in the presence and absence of South Pole magnetism. After 14 days of incubation, during which one series of tissues was exposed to South Pole magnetism and an equivalent duplicate series was not, the melanin color formed in each tissue was estimated using primary color image analysis.
MelanoDerm™ MEL-300, a 3-dimensional epidermal model containing functioning melanoctyes produced by MatTek Corporation, Ashland, Mass., was the tissue used for this experiment. Each MEL-300 kit has 24 tissue pieces.
Three depigmenting actives were added to the Melanoderm incubation medium at the following final concentrations,
Two (2) MEL-300 kits, each with 24 tissue pieces, were prepared with identical application of actives. Each active, Vitamin C, Kojic acid & Yohimbine, was applied to the incubation medium of 5 tissues at the concentrations specified above. 4 tissues were untreated. […] One Mel-300 kit prepared as above was placed on the 6 inch×4 inch South Pole surface of the Ferrimag magnet for incubation, and the identical second Mel-300 kit was incubated at the opposite side (top left vs bottom right) of the same incubator and additionally shielded from the magnet.
The tissues were incubated for 14 days in maintenance medium at 37 degrees centigrade and a constant atmosphere (5%CO2). The maintenance medium and actives were replenished 4 times weekly. At 7 days, 2 tissues were removed from each active and control group leaving 3 tissues in each group (2 in the untreated group) for day 14 evaluation.
At the day 14 completion of the experiment the tissue pieces of each Mel-300 incubation plate were photographed from above. Each tissue appeared as a small disc varying in brown color intensity. The photographs of two Mel-300 incubation plates (one incubated on the magnet and one without magnetism) were scanned into a Pentium II computer and the color primary color content of each disc was measured using a color analysis macro within an Optimas image quantification software package. The blue color content was used as an index of melanin pigment (preliminary experiments confirmed that the principle primary color of melanin is blue using this image analysis system—this was established by comparing brown freckles and age spots with surrounding non-pigmented skin in color photographs of Caucasian human skin). The blue color intensity scale is 0-255 where 0 is saturation with blue color and 255 is total absence of blue color. The actual blue scale reading of each tissue sample was converted to a % blue value by computing it's proportion of the full range of 0to 255.

MelanoDerm tissue = MelanoDerm tissue viability by MTT; details: 0.5% in water, preliminary experiment
Experimental: Phytic acid was tested at a concentration of 0.5% in water.

PGE-2 = PGE-2 release by MelanoDerm Living Skin Equivalents (Elisa); parameters: PGE-2(i) / PGE-2 (ii): unit not given beside the values; details: 0.5% phytic acid; for PGE-2 release % Untreated: 24 hr; for PGE-2(i): first determination; for PGE-2(i) / PGE-2 (ii): individual tissues; for PGE-2 Mean: mean of (i) and (ii); for PGE-2 (ii): second determination 7 days later
Experimental: (§1) Phytic acid (0.5%) was examined for its effect on cytokine release by MelanoDerm Living Skin Equivalents in the presence and absence of South Pole magnetism. After 24 hours incubation, during which one set of tissues was exposed to South Pole magnetism and an equivalent duplicate series was not, the culture medium was assayed for IL1-a and PGE-2. In the absence of magnetism there was a significant increase in medium concentration of both IL1-a and PGE-2. These increases were suppressed in the presence of South pole magnetism. Living Skin Equivalent: MelanoDermTM MEL-300, a 3-dimensional epidermal model containing functioning melanoctyes produced by MatTek Corporation, Ashland, Mass., was the tissue used for this experiment. Fifty (50) microliters of phytic acid solution (0.5%) was applied to the stratum corneum surface of 4 MEL-300 tissues. Eight (8) untreated MEL-300 tisues served as controls. Half the tissues (i.e. 2 phytic acid and 4 untreated controls) were placed on the 6 inch×4 inch South Pole surface of the […] magnet for 24 hours incubation (37 degrees centigrade; 5% CO2). After the 24 hr incubation the tissues were removed from the incubation medium and assayed for MTT to confirm tissue viability. The incubation medium was assayed for content of cytokines IL1-a and PGE-2. The tissue samples were refrigerated and a second determination of cyotkines was made 7 days later. The cytokine assays were performed using commercially available 96 well Elisa kits.

IL1-a = IL1-a release by MelanoDerm Living Skin Equivalents (Elisa); parameters: IL1-a(i) / IL1-a(ii): unit not given here; details: 0.5% phytic acid; for IL1-a release % Untreated: 24 hr; for IL1-a(i): first determination; for IL1-a(i) / IL1-a(ii): individual tissues; for IL1-a Mean: mean of (i) and (ii); for IL1-a(ii): second determination 7 days later
Experimental: as §1

human sebocytes = assay: Lipid production by sebocytes in vitro (14C-acetate incorporation); details: for % Reduction: vs control of same plate
Experimental: This example measured the effect of various actives in combination with magnets on lipid production by sebocytes in vitro.
Secondary cultures of human sebocytes obtained from an adult […] were grown in the inner 24 wells of 48-well tissue culture plates (Costar Corp.; Cambridge, Mass.) until confluent. Sebocyte growth medium consisted of Clonetics Keratinocyte Basal Medium (KBM) supplemented with 14 ug/ml bovine pituitary extract, 0.4 ug/ml hydrocortisone, 5 ug/ml insulin, 10 ng/ml epidermal growth factor, 1.2×10^−10 M cholera toxin, 100 units/ml penicillin, and 100 ug/ml streptomycin. All cultures were incubated at 37° C. in the presence of 7.5% CO2. Medium was changed three times per week.
On the first day of experimentation, the growth medium was removed and the sebocytes washed three times with sterile Dulbecco's Modified Eagle Medium (DMEM; phenol red free). Fresh DMEM was added to each sample (triplicates) with 5 microliter of test agent solubilized in ethanol (312.5 uM iso-tridecylsalicylate or 10 uM Retinyl Linoleate; 6 replicates for each sample). Controls consisted of addition of ethanol alone. Each magnet was sandwiched between 2 plates for 24 hours. For 2 of the sebocyte plates, the configuration was North magnet pointing up, for 2 other plates, the configuration was reversed (South magnet up), and one plate served as a control (no presence of magnets).
After 24 hours, addition of ^14C-acetate buffer (5 mM final concentration, 56 mCi/mmol specific activity) was performed. Sebocytes were then returned to the incubator for four hours after which each culture was rinsed three times with phosphate buffered saline to remove unbound label. Radioactive label remaining in the sebocytes was harvested and counted using a Beckman scintillation counter.

[1] = No Magnetism, increase over untreated
[2] = 10 uM Retinyl Linoleate, Plate A: No Magnet Presence
[3] = 10 uM Retinyl Linoleate, Plate B: North Magnet Up (Top Plate)
[4] = 10 uM Retinyl Linoleate, Plate C: North Magnet Up (Bottom Plate)
[5] = 10 uM Retinyl Linoleate, Plate D: South Magnet Up (Top Plate)
[6] = 10 uM Retinyl Linoleate, Plate E: South Magnet Up (Bottom Plate)
[7] = 312.5 uM TDS, Plate A: No Magnet Presence
[8] = 312.5 uM TDS, Plate B: North Magnet Up (Top Plate)
[9] = 312.5 uM TDS, Plate C: North Magnet Up (Bottom Plate)
[10] = 312.5 uM TDS, Plate D: South Magnet Up (Top Plate)
[11] = 312.5 uM TDS, Plate E: South Magnet Up (Bottom Plate)

With `O=c1cc(CO)occ1O` [Kojic Acid, Kojic acid] the “effect of South pole magnetism on skin depigmenting action” value (“effect of South pole magnetism” below) (MelanoDerm MEL-300) was “enhances”, the “Mean A-B (Mean Difference)” value (MelanoDerm MEL-300; Kojic acid 500 micro-molar) was −2.06 and the “Pigmentation Reduction Magnet % South Pole (B)” value (MelanoDerm MEL-300; Kojic acid 500 micro-molar) was −9.21% and −10.02% and 4.75%. The “Pigmentation Reduction % No Magnet (A)” value (MelanoDerm MEL-300; Kojic acid 500 micro-molar) was −4.77% and −8.72% and −4.27%.
`O=P(O)(O)O[C@H]1[C@H](OP(=O)(O)O)[C@@H](OP(=O)(O)O)[C@H](OP(=O)(O)O)[C@@H](OP(=O)(O)O)[C@H]1OP(=O)(O)O` [Phytic acid] was tested, and the “toxicity to MelanoDerm tissue (tissue viability by MTT)” value (MelanoDerm tissue) was “non-toxic”, the “PGE-2 release % Untreated” value (PGE-2; + South Pole Magnetism, change over untreated plus magnet) was −2% and the “PGE-2 release % Untreated” value (PGE-2; [1]) was 191%. The “PGE-2(i)” value (PGE-2; South Pole magnet) was 2056 and 2387, the “PGE-2 Mean” value (PGE-2; South Pole magnet) was 2093 +/− 208 and the “PGE-2 (ii)” value (PGE-2; South Pole magnet) was 1899 and 2030. The “PGE-2(i)” value (PGE-2; no magnet) was 5326 and 4673, the “PGE-2 Mean” value (PGE-2; no magnet) was 5136 +/− 421 and the “PGE-2 (ii)” value (PGE-2; no magnet) was 5621 and 4923. The “IL1-a release % Untreated” value (IL1-a; + South Pole Magnetism, increase over untreated plus magnet) was 16%, the “IL1-a release % Untreated” value (IL1-a; [1]) was 99% and the “IL1-a(i)” value (IL1-a; South Pole magnet) was 239.1 and 108.9. The “IL1-a Mean” value (IL1-a; South Pole magnet) was 151.2 +/− 64, the “IL1-a(ii)” value (IL1-a; South Pole magnet) was 158.2 and 98.4 and the “IL1-a(i)” value (IL1-a; no magnet) was 285.3 and 222.9. The “IL1-a Mean” value (IL1-a; no magnet) was 209 +/− 61 and the “IL1-a(ii)” value (IL1-a; no magnet) was 186.2 and 141.1.
With `CCCCC/C=C\C/C=C\CCCCCCCC(=O)OC/C=C(C)/C=C/C=C(C)/C=C/C1=C(C)CCCC1(C)C` [Retinyl Linoleate] the “DPMs (AVG)” value (human sebocytes; [2]) was 4198.1 DPMs, the “% Reduction” value (human sebocytes; [2]) was 3.9% and the “DPMs (AVG)” value (human sebocytes; [3]) was 4123.0 DPMs. For the same molecule, the “% Reduction” value (human sebocytes; [3]) was 6.5%, the “DPMs (AVG)” value (human sebocytes; [4]) was 3660.1 DPMs and the “% Reduction” value (human sebocytes; [4]) was 1.8%. The “DPMs (AVG)” value (human sebocytes; [5]) was 3619.4 DPMs, the “% Reduction” value (human sebocytes; [5]) was −1.6% and the “DPMs (AVG)” value (human sebocytes; [6]) was 3181.1 DPMs. For the same molecule, the “% Reduction” value (human sebocytes; [6]) was 5.6%.
In the case of `O=C1O[C@H]([C@@H](O)CO)C(O)=C1O` [Vitamine C, Ascorbic acid], the “Mean A-B (Mean Difference)” value (MelanoDerm MEL-300; Ascorbic acid 285 micro-molar) is reported as −3.97, the “Pigmentation Reduction Magnet % South Pole (B)” value (MelanoDerm MEL-300; Ascorbic acid 285 micro-molar) is reported as −6.18% and −6.34% and −4.55% and the “Pigmentation Reduction % No Magnet (A)” value (MelanoDerm MEL-300; Ascorbic acid 285 micro-molar) is reported as −4.21% and −2.65% and 1.7%. For the same molecule, the “effect of South pole magnetism” value (MelanoDerm MEL-300) was “enhances”.
`COC(=O)[C@@H]1[C@H]2C[C@H]3c4[nH]c5ccccc5c4CCN3C[C@@H]2CC[C@@H]1O` [Yohimbine] was tested, and the “effect of South pole magnetism” value (MelanoDerm MEL-300) was “enhances”, the “Mean A-B (Mean Difference)” value (MelanoDerm MEL-300; Yohimbine 25 micro-molar) was −3.27 and the “Pigmentation Reduction Magnet % South Pole (B)” value (MelanoDerm MEL-300; Yohimbine 25 micro-molar) was −2.55% and −8.08% and −6.76%. For the same molecule, the “Pigmentation Reduction % No Magnet (A)” value (MelanoDerm MEL-300; Yohimbine 25 micro-molar) was 1.85% and −5.63% and −3.8%.
With iso-tridecylsalicylate [TDS] the “DPMs (AVG)” value (human sebocytes; [7]) was 2913.0 DPMs, the “% Reduction” value (human sebocytes; [7]) was 36.3% and the “DPMs (AVG)” value (human sebocytes; [8]) was 3367.8 DPMs. The “% Reduction” value (human sebocytes; [8]) was 23.6%, the “DPMs (AVG)” value (human sebocytes; [9]) was 3543.9 DPMs and the “% Reduction” value (human sebocytes; [9]) was 4.9%. For the same molecule, the “DPMs (AVG)” value (human sebocytes; [10]) was 3040.0 DPMs, the “% Reduction” value (human sebocytes; [10]) was 14.7% and the “DPMs (AVG)” value (human sebocytes; [11]) was 2677.4 DPMs. For the same molecule, the “% Reduction” value (human sebocytes; [11]) was 20.5%.
